18 compounds from ChEMBL document CHEMBL1909046, “DrugMatrix in vitro pharmacology data” can be followed below.

For orientation: pIC50 means the IC50 on a negative log10 scale, so that one unit is a factor of ten. The term pKi denotes −log10 of the Ki, conventionally taken in molar units.

Assay [1] is described as follows: DRUGMATRIX: Calcium Channel Type L, Dihydropyridine radioligand binding (ligand: [3H] Nitrendipine). It is filed as cell membranes, Rattus norvegicus, Wistar, Cerebral cortex, Membrane. The settings on record: Not Active = under 50% inhibition at 10 µM.
Another assay concerns the target Vasopressin V1a receptor (Homo sapiens, UniProt P37288). The assay is classed as cell membranes, Membrane. The settings on record: hek293. Further: in other assays of this panel Not Active means under 50% inhibition at 10 µM.
Assay [2] addresses T1, Neuropeptide Y receptor type 2 (Homo sapiens, UniProt P49146).
T1 sequence (P49146 whole entry): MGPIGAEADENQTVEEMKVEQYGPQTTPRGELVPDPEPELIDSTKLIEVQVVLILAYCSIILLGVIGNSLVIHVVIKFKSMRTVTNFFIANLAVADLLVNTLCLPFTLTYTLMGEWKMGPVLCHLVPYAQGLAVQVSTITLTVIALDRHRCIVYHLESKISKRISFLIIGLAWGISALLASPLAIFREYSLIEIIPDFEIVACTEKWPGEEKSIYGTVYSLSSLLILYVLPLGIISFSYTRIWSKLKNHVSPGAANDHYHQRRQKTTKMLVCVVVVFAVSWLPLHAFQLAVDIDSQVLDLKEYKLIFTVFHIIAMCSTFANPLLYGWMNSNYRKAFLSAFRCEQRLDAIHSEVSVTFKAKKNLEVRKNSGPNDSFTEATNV
It is filed as cell membranes, Membrane. The settings on record: kan-ts.

The target in the next assay is T2, Progesterone receptor (Bos taurus, UniProt Q690N0).
T2 sequence (Q690N0 whole entry): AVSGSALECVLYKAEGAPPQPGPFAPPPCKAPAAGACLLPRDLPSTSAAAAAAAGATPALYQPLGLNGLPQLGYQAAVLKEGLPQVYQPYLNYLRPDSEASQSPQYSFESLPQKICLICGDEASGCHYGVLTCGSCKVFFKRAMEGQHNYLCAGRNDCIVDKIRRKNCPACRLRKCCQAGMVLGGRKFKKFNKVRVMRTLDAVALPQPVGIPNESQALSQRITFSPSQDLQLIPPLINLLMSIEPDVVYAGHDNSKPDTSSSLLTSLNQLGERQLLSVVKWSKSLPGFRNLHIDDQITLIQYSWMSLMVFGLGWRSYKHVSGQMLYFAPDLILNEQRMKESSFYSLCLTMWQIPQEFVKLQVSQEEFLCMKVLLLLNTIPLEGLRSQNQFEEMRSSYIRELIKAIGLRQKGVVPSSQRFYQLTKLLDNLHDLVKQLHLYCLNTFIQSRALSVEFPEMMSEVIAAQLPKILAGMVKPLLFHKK
The assay is described as follows: DRUGMATRIX: Progesterone radioligand binding (ligand: [3H] R-5020). The note with it: Not Active = under 50% inhibition at 10 µM. It is filed as tissue-based, Uterus.

Assay [3] has as its target Protein kinase C alpha type (Homo sapiens, UniProt P17252). The assay is classed as cell-based. The settings on record: sf9.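 Further: inhibition of PKCalpha kinase activity measured in an enzyme assay with histone as the phosphorylation substrate; in other assays of this panel Not Active means under 50% inhibition at 10 µM.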
A short description of assay [4]: DRUGMATRIX: Purinergic P2X radioligand binding (ligand: [3H] alpha, beta-Methylene-ATP). The assay is classed as cell membranes, Oryctolagus cuniculus, New Zealand albino, Urinary bladder, Membrane. The note with it: Not Active = under 50% inhibition at 10 µM.
In a further assay the target is Estrogen receptor beta (Homo sapiens, UniProt Q92731). The note with it: sf9. Further: in other assays of this panel Not Active means under 50% inhibition at 10 µM.
Sequence of Estrogen receptor beta (Q92731 whole entry): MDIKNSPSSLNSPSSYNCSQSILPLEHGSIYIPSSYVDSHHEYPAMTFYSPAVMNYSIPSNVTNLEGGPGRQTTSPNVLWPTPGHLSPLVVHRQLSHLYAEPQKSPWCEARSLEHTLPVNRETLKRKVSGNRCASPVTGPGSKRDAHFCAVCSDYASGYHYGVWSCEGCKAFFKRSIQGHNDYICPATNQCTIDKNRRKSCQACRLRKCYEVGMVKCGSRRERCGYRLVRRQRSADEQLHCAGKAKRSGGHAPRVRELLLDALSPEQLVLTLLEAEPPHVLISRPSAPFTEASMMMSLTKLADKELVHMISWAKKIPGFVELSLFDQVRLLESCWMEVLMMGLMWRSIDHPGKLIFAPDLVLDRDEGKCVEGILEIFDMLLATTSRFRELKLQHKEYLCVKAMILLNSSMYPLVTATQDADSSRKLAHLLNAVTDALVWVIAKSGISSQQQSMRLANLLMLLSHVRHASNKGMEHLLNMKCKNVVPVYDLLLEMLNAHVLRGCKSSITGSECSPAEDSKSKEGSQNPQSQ

pIC50, pKi: −log10 of the molar value.

Sequence of Vasopressin V1a receptor (P37288 whole entry): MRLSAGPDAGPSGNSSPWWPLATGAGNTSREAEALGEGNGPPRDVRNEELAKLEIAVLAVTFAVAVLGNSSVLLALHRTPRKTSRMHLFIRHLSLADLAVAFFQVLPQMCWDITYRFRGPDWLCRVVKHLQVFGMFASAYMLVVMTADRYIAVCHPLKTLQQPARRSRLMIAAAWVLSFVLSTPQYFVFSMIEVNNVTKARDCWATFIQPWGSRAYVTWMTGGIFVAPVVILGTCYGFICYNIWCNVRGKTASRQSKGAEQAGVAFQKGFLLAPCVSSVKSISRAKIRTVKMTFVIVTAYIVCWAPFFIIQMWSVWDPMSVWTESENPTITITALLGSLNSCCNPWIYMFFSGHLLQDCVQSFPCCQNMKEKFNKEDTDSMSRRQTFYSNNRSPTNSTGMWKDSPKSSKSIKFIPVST

`O=NN(CCCl)C(=O)NCCCl` [CARMUSTINE]: the IC50 result (in assay [1]; at Vasopressin V1a receptor; in assay [2]; at Progesterone receptor; in assay [3]; in assay [4]) was “Not Active” in each case. For the same compound, the IC50 result on Estrogen receptor beta is “Not Active”. The Ki entry in assay [1] and in assay [4] was “Not Active” each time.

For the compound `CC1=C(C(=O)O)N2C(=O)[C@@H](NC(=O)[C@H](N)c3ccccc3)[C@H]2SC1` [CEPHALEXIN ANHYDROUS], the IC50 result (in assay [1]; against Vasopressin V1a receptor; in assay [2]; on Progesterone receptor; in assay [3]; in assay [4]) was “Not Active” each time. The IC50 result against Estrogen receptor beta is reported as “Not Active”. For the same compound, the Ki result in assay [1] and in assay [4] was “Not Active” each time.

With `O=C(N[C@H](CO)[C@H](O)c1ccc([N+](=O)[O-])cc1)C(Cl)Cl` [CHLORAMPHENICOL], the IC50 entry (in assay [1]; on Vasopressin V1a receptor; in assay [2]; on Progesterone receptor; in assay [3]; in assay [4]) was “Not Active” in each case. Moreover, the IC50 entry at Estrogen receptor beta is recorded as “Not Active”. In addition, the Ki result in assay [1] and in assay [4] was “Not Active” each time.

For `ClC(Cl)Cl` [CHLOROFORM], the IC50 entry (in assay [1]; against Vasopressin V1a receptor; in assay [2]; at Progesterone receptor; in assay [3]; in assay [4]) was “Not Active” throughout. The IC50 entry against Estrogen receptor beta is “Not Active”. Besides, the Ki entry in assay [1] and in assay [4] was “Not Active” throughout.

Consider `CCOC(=O)C(C)(C)Oc1ccc(Cl)cc1` [CLOFIBRATE], for which the IC50 entry (in assay [1]; against Vasopressin V1a receptor; in assay [2]; on Progesterone receptor; in assay [3]; in assay [4]) was “Not Active” throughout. Moreover, the IC50 result at Estrogen receptor beta is “Not Active”. Moreover, the Ki entry in assay [1] and in assay [4] was “Not Active” in each case.

As to `CC(=O)OCC(=O)[C@@]1(O)CC[C@H]2[C@@H]3CCC4=CC(=O)CC[C@]4(C)[C@H]3C(=O)C[C@@]21C` [CORTISONE ACETATE], the IC50 entry (in assay [1]; against Vasopressin V1a receptor; in assay [2]; on Progesterone receptor; in assay [3]; in assay [4]) was “Not Active” each time. For the same compound, the IC50 result on Estrogen receptor beta was “Not Active”. Also, the Ki result in assay [1] and in assay [4] was “Not Active” throughout.

Consider `O=c1ccc2ccccc2o1` [COUMARIN], for which the IC50 entry (in assay [1]; on Vasopressin V1a receptor; in assay [2]; on Progesterone receptor; in assay [3]; in assay [4]) was “Not Active” each time. Besides, the IC50 result on Estrogen receptor beta is on record as “Not Active”. Moreover, the Ki result in assay [1] and in assay [4] was “Not Active” in each case.

For the compound `C[C@@H]1C[C@@H]([C@H](O)CC2CC(=O)NC(=O)C2)C(=O)[C@@H](C)C1` [CYCLOHEXIMIDE], the IC50 result (in assay [1]; at Vasopressin V1a receptor; in assay [2]; at Progesterone receptor; in assay [3]; in assay [4]) was “Not Active” throughout. Further, on Estrogen receptor beta, the IC50 result was “Not Active”. Moreover, the Ki entry in assay [1] and in assay [4] was “Not Active” each time.

As for `CN(C)/N=N/c1[nH]cnc1C(N)=O` [DACARBAZINE], the IC50 result (in assay [1]; on Vasopressin V1a receptor; in assay [2]; at Progesterone receptor; in assay [3]; in assay [4]) was “Not Active” in each case. At Estrogen receptor beta, the IC50 result is “Not Active”. Also, the Ki result in assay [1] and in assay [4] was “Not Active” each time.

`COc1ccc2c(c1)[C@]13CCCC[C@@H]1[C@H](C2)N(C)CC3` [DEXTROMETHORPHAN]: the IC50 entry (in assay [1]; against Vasopressin V1a receptor; in assay [2]; on Progesterone receptor; in assay [3]; in assay [4]) was “Not Active” throughout. For the same compound, the IC50 entry at Estrogen receptor beta is listed as “Not Active”. Besides, the Ki result in assay [1] and in assay [4] was “Not Active” in each case.

For the compound `COP(=O)(OC)OC=C(Cl)Cl` [DICHLORVOS], the IC50 result (in assay [1]; against Vasopressin V1a receptor; in assay [2]; at Progesterone receptor; in assay [3]; in assay [4]) was “Not Active” throughout. Further, on Estrogen receptor beta, the IC50 entry is given as “Not Active”. The Ki result in assay [1] and in assay [4] was “Not Active” throughout.

Consider `O=C(O)Cc1ccccc1Nc1c(Cl)cccc1Cl` [DICLOFENAC], for which the IC50 result (in assay [1]; at Vasopressin V1a receptor; in assay [2]; on Progesterone receptor; in assay [3]; in assay [4]) was “Not Active” in each case. For the same compound, the IC50 result at Estrogen receptor beta is “Not Active”. For the same compound, the Ki entry in assay [1] and in assay [4] was “Not Active” each time.

With `C[C@H]1O[C@@H](O[C@H]2[C@@H](O)C[C@H](O[C@H]3[C@@H](O)C[C@H](O[C@H]4CC[C@@]5(C)[C@H](CC[C@@H]6[C@@H]5CC[C@]5(C)[C@@H](C7=CC(=O)OC7)CC[C@]65O)C4)O[C@@H]3C)O[C@@H]2C)C[C@H](O)[C@@H]1O` [DIGITOXIN], the IC50 result (in assay [1]; on Vasopressin V1a receptor; in assay [2]; on Progesterone receptor; in assay [3]; in assay [4]) was “Not Active” in each case. For the same compound, the IC50 entry on Estrogen receptor beta is given as “Not Active”. For the same compound, the Ki entry in assay [1] and in assay [4] was “Not Active” throughout.

In the case of `CCN1CC(CCN2CCOCC2)C(c2ccccc2)(c2ccccc2)C1=O` (stereo not drawn) [DOXAPRAM], the IC50 result (in assay [1]; on Vasopressin V1a receptor; in assay [2]; at Progesterone receptor; in assay [3]; in assay [4]) was “Not Active” in each case. In addition, at Estrogen receptor beta, the IC50 entry is listed as “Not Active”. For the same compound, the Ki result in assay [1] and in assay [4] was “Not Active” throughout.

`Cn1c(=O)c2c(ncn2CC2OCCO2)n(C)c1=O` [DOXOFYLLINE]: the IC50 entry (in assay [1]; against Vasopressin V1a receptor; in assay [2]; on Progesterone receptor; in assay [3]; in assay [4]) was “Not Active” in each case. The IC50 result at Estrogen receptor beta was “Not Active”. Moreover, the Ki entry in assay [1] and in assay [4] was “Not Active” in each case.

Regarding `COc1cccc2c1C(=O)c1c(O)c3c(c(O)c1C2=O)C[C@@](O)(C(=O)CO)C[C@@H]3O[C@H]1C[C@H](N)[C@H](O)[C@H](C)O1` [DOXORUBICIN], the IC50 result (in assay [1]; on Vasopressin V1a receptor; in assay [2]; on Progesterone receptor; in assay [3]; in assay [4]) was “Not Active” throughout. For the same compound, the IC50 entry on Estrogen receptor beta is given as “Not Active”. The Ki result in assay [1] and in assay [4] was “Not Active” each time.

Regarding `COc1cccc2c1C(=O)c1c(O)c3c(c(O)c1C2=O)C[C@@](O)(C(=O)CO)C[C@@H]3O[C@H]1C[C@H](N)[C@@H](O)[C@H](C)O1` [EPIRUBICIN], the IC50 result (in assay [1]; against Vasopressin V1a receptor; in assay [2]; at Progesterone receptor; in assay [3]; in assay [4]) was “Not Active” each time. The IC50 entry on Estrogen receptor beta is reported as “Not Active”. Also, the Ki entry in assay [1] and in assay [4] was “Not Active” throughout.

As for `C[C@]12CC[C@@H]3c4ccc(OC(=O)c5ccccc5)cc4CC[C@H]3[C@@H]1CC[C@@H]2O` [ESTRADIOL BENZOATE], the IC50 result (in assay [1]; against Vasopressin V1a receptor; in assay [2]; in assay [3]; in assay [4]; at Estrogen receptor beta) was “Not Active” each time. Also, the Ki result in assay [1] and in assay [4] was “Not Active” in each case. Further, the pIC50 at Progesterone receptor (read-out: IC50) is 5.02. Also, at Progesterone receptor (read-out: Ki), the pKi was 5.90.
